Measured values from patent US4113953A, “2-Nitroimidazole derivatives” (Gruppo Lepetit S.p.A., priority 1976, dated 1978).

How the values were obtained:
[1] = tested on: Trichomonas vaginalis; experiment: in vivo activity against Trichomonas vaginalis (ED50, per os, mice) and therapeutic index; settings: for ED50: po, Trichomonas vaginalis
Text: (§1) The inventive compounds have very interesting antimicrobial and amoebicidal utilities which are ascertained through the usual and well known in vitro tests. Moreover, they display an outstanding in vivo activity against Trichomonas vaginalis, a protozoan which is responsible for itching and other painful and troublesome diseases of the vaginal tract. Their in vivo activity, expressed as an ED50 value, is better than that of other known 2-nitroimidazole derivatives, and their activity is, moreover, coupled with a very low toxicity, expressed as an LD50 value. These properties indicate that the compounds of the invention are very promising anti-Trichomonas agents both from the effectiveness and the safety standpoint, owing to their […] and their high therapeutic indexes (T.I.). Since a therapeutic index is expressed by the following ratio: [formula] it is clear that the higher the T.I., the safer a drug is.
In the following Table, results representative of the inventive compounds are reported.

[2] = toxicity (LD50, per os, mice); type: in vivo
Text: as §1

Cn1c(C(C)(C)OC(=O)Oc2ccccc2)cnc1[N+](=O)[O-] [Example 1, α, α,1-Trimethyl-2-nitroimidazole-5-methanol phenylcarbonate]
T.I. (LD50/ED50) ([1]; per os, mice): 1969 | ED50 ([1]; per os, mice): 1.65 mg/kg | T.I. compared with metronidazole, in words ([1]; vs metronidazole, LD50/ED50): better T.I. than metronidazole | ED50 compared with metronidazole, in words ([1]; vs metronidazole, per os, mice): better ED50 | LD50 [2]: 3250 mg/kg

Cc1ncc([N+](=O)[O-])n1CCO [metronidazole, 1-(2-hydroxyethyl)-2-methyl-5-nitroimidazole, reference compound]
T.I. (LD50/ED50) ([1]; per os, mice): 658 | ED50 ([1]; per os, mice): 5.77 mg/kg | LD50 [2]: 3800 mg/kg
